The source made the active and inactive calls. The rule behind the calls is not given here.
How the values were obtained:
[1] = Acute toxicity in male C57BL/6J mouse assessed as inflammatory cell infiltration in heart at 2 g/Kg, IG measured after 72 hrs by H and E staining based analysis; assay type: tissue-based; settings: in vivo, po, 2000 mg/kg
[2] = biological target: T1, Receptor-interacting serine/threonine-protein kinase 1 (Homo sapiens) (UniProt Q13546); assay: Inhibition of RIPK1 phosphorylation in TSZ-induced human HT-29 cells at 10 uM preincubated with compound followed by Z-VAD-FMK, SM164 and TNFalpha stimulation and measured within 6 hrs by Western blot analysis relative to control; assay type: cell-based
T1 sequence (whole entry): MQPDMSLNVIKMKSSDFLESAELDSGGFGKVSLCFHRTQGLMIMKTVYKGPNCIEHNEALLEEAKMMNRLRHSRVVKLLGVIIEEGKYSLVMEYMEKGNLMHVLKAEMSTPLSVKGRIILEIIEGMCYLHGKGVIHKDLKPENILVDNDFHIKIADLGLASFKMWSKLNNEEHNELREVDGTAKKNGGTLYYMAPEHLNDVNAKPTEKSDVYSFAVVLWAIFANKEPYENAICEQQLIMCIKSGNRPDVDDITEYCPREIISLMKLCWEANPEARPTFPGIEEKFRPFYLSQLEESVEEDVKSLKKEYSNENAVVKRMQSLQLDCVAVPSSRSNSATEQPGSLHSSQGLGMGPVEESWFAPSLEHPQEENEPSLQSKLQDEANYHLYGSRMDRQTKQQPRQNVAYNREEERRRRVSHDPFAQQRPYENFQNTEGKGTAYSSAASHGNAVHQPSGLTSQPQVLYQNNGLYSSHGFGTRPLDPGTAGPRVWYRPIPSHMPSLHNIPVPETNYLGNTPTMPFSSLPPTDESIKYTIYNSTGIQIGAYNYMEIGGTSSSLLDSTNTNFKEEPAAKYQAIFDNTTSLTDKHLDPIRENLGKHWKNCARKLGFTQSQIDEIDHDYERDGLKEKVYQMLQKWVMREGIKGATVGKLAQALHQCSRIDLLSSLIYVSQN

[3] = biological target: Receptor-interacting serine/threonine-protein kinase 3 (Homo sapiens) (UniProt Q9Y572); assay: Inhibition of RIPK3 phosphorylation in TSZ-induced human HT-29 cells at 10 uM preincubated with compound followed by Z-VAD-FMK, SM164 and TNFalpha stimulation and measured within 6 hrs by Western blot analysis relative to control; assay type: cell-based
Receptor-interacting serine/threonine-protein kinase 3 (Homo sapiens), sequence (Q9Y572 whole entry, looked up): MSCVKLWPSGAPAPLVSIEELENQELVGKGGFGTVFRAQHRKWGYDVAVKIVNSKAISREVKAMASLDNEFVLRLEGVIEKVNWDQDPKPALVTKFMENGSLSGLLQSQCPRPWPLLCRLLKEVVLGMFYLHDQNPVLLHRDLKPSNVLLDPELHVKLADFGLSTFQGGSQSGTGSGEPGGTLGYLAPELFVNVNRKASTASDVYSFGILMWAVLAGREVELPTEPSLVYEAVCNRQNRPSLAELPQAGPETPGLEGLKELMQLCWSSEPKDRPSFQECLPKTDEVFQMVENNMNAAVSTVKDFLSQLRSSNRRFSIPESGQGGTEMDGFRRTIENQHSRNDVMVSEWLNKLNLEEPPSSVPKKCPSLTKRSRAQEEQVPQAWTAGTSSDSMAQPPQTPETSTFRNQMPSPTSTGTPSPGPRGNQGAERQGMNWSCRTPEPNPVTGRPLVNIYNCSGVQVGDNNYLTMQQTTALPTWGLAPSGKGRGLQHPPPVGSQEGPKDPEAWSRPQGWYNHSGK

Mus musculus = assay: Anti-necroptotic activity in TNFalpha/Z-VAD-FMK induced SIRS male C57BL/6J mouse model assessed as reduction in IL6 in lung at 5 to 10 mg/kg, po pre-administered with compound via gavage for 2 hrs followed by […] of Z-VAD-FMK stimulation for 15 mins with subsequent TNF-alpha stimulation for 1 hrs and re-current […] of Z-VAD-FMK stimulation and measured after 8 hrs post SIRS induction by ELISA; assay type: functional, organism-based; settings: dose 5-10 mg/kg, time 10.0 hrs
HT-29 [4] = assay: Downregulation of RIPK1 protein level in human HT-29 cells at 6 uM preincubated with MLN4924 for 2 hrs followed by compound addition and measured after 9 hrs by Western blot analysis; assay type: functional, cell-based
[5] = Bioavailability in Sprague-Dawley rat at 10 mg/kg, IG measured after 24 hrs by LC-MS/MS analysis; assay type: ADME, organism-based; settings: in vivo, po
HT-29 [6] = assay: Downregulation of total RIPK3 protein level in TSZ-induced human HT-29 cells at 10 uM preincubated with compound followed by Z-VAD-FMK, SM164 and TNFalpha stimulation and measured after 6 hrs by Western blot analysis; assay type: functional, cell-based
HT-29 [7] = assay: Anti-necroptotic activity in TCZ-induced human HT-29 cells assessed as increase in cell viability at 1.25 uM preincubated with compound followed by Z-VAD-FMK, cycloheximide and TNFalpha addition and measured after 16 hrs by CellTiter-Lumi luminescent cell viability assay relative to control; assay type: functional
L929 = assay: Anti-necroptotic activity in TZ-induced mouse L929 cells assessed as rounded shape cell morphology at 10 uM measured after 12 hrs by Live-cell super-resolution panoramic microscopic analysis; assay type: functional, cell-based

Which results are given for `Cn1ccc(-c2ccc(NC(=O)[C@]34CCC(C)(C)C[C@H]3[C@H]3C(=O)C=C5[C@@]6(C)C=C(C#N)C(=O)C(C)(C)[C@@H]6CC[C@@]5(C)[C@]3(C)CC4)cc2)n1`?
Activity [1]: Non-toxic; inhibition [2]: 100%; inhibition [3]: 100%; Activity (Mus musculus): Active; Activity (HT-29 [4]): Active; bioavailability [5]: 4.66%; Activity (HT-29 [6]): Active; Activity (HT-29 [7]): 100%; Activity (L929): Active

From ChEMBL document CHEMBL6177981, “Bardoxolone Derivatives as Novel Pseudo-Natural Necroptosis Inhibitors by Destabilizing HSP90 Client Proteins” (J Med Chem, 2025)
